{"source": "paper PMC3618964", "about": "(Journal of medicinal chemistry, 2010)", "origin": "cited, not measured here", "molecular_target": "SaDHFR", "details": "read-out: Ki value (SaDHFR)", "data": [{"compound": "CCc1nc(N)nc(N)c1C#CCc1cc(OC)ccc1OC", "note": "[Compound 9]", "values": [{"measurement": "Ki", "value": 9.9, "unit": "nM"}]}]}
